Results taken from paper PMC5939605, “Highly luminescent, biocompatible ytterbium(III) complexes as near-infrared fluorophores for living cell imaging” (Chemical Science, 2018).
Where “and” joins values, the source holds several entries; their conditions need not be identical. Identical values can stand only once.

Experiments:
[1] = set-up: method as in PMID 12895128; details: in CH2Cl2 ref 53; cited from earlier work
[2] = set-up: method as in PMID 22908122; details: in CHCl3 ref 59; cited from earlier work
[3] = NIR luminescence decay lifetime monitored at 980 nm; type: physicochemical; details: for Decay lifetime (τobs): bovine albumin (BSA), air-saturated, 0.1% DMSO
Protocol: Emission, excitation spectra and lifetime were measured on an Edinburgh Analytical Instruments FLS980 lifetime and steady state spectrometer equipped with a 450 W Xe lamp, a 60 W microsecond flash lamp, PMT R928 for the visible emission spectrum, HAMAMATSU R5509-73 PMT with a C9940-02 cooler for the NIR emission spectrum and luminescence lifetime. Excitation and emission spectra were corrected for instrumental functions (including the correction for detector, gratings etc.). All luminescence decays were exponentially tail-fitted by monoexponential functions without deconvolution for the negligible instrumental reference function in the NIR region.

[4] = NIR luminescence quantum yield, comparative method vs YbTPP(LOEt); type: physicochemical
Protocol: Quantum yields in solution were determined using a comparative method and the equation: Φs/Φr = (Gs/Gr) × (ηs^2/ηr^2), where the subscripts r and s denote the reference and sample respectively, Φ is the quantum yield, G is the slope from the plot of integrated emission intensity vs. absorbance, and η is the refractive index of the solvent.[79] The reference was YbTPP(LOEt) in CH2Cl2 ([…]).[53] Generally, YbTPP(LOEt) and the solution of Yb^3+ complex with 4 different concentrations were firstly prepared in the corresponding solvents. The absorbance of all the solutions at 410 nm was recorded on an Agilent 8453 UV-vis spectrometer equipped with an Agilent 89090A thermostat (±0.1 °C) and NIR emissions were recorded on an Edinburgh Analytical Instruments FLS980 lifetime and steady state spectrometer with the excitation wavelength at 410 nm under identical conditions. According to the ratio of the slope GYb – x/Gr (x = 1–5, 2c–5c), the relative quantum yield of Yb^3+ complexes could be obtained according to the equation described above. The absorbance values of all the samples and references are below 0.1 and the absorbance values undergo background correction by subtracting the average over a range from 800 to 820 nm. The integrated emission intensity integrated from 880 nm to 1150 nm was obtained by subtracting the blank (integrated emission intensity with only the pure solvent under identical conditions). The estimated error for the quantum yield measurements is 15%. For the quantum yield measured in degassed solution, solutions of Yb^3+ complexes with 4 different concentrations were degassed via 5 freeze–pump–thaw cycles. Then the measurement and calculation were the same as above.

[5] = n-octanol/water partition coefficient (log P); type: physicochemical
Protocol: Equal volumes (2000 mL) of n-octanol and water were thoroughly mixed using an oscillator and separated after 24 h. Yb^3+ complex (0.1 mg each) was then dissolved in 40 mL of the separated n-octanol and the solution and 40 mL of water (previously separated from the mixture) was added. The new water–octanol system was allowed to equilibrate for additional 24 h. After separation, both fractions were analyzed by UV-vis spectra. The log P values were calculated with the following equation:[80]1 log P = log(Coctanol/Cwater)where Coctanol and Cwater refer to the concentrations of Yb^3+ complexes in n-octanol and water, respectively.

[6] = Stability in solution and aqueous media (absorption / NIR luminescence, dark and 405 nm laser); type: physicochemical
Description: We also measured the ^2D NMR of Yb-4 in CH3OH as an example (Fig. S75 ^†) and only one single peak was observed.
Fig. 2 (a) Spectroscopic evaluation of Yb-4 photostability in water, PBS and FBS with 0.1% DMSO under irradiation of a 405 nm laser (0.2 W cm^–2) (inset: dark stability); (b) spectroscopic evaluation of Yb-4 and Yb-4c stabilities in pH = 5 PBS with 0.1% DMSO under irradiation of a 405 nm laser (0.2 W cm^–2). Emission intensity values were referenced to the emission intensity of Yb^3+ (980 nm) at 0 h.

[7] = DMSO, air-equil., monitored at 980 nm
[8] = DMSO, degassed, monitored at 980 nm
[9] = H2O with 0.1% DMSO, air-equil., monitored at 980 nm
[10] = H2O with 0.1% DMSO, degassed, monitored at 980 nm

Compound	τobs [3, 7]	τobs [3, 8]	τobs [3, 9]	τobs [3, 10]	Decay lifetime (τobs) ([3]; monitored at 980 nm)	ΦYb ([4]; DMSO, air-equil.)	ΦYb ([4]; DMSO, degassed)	ΦYb ([4]; H2O with 0.1% DMSO, air-equil.)	ΦYb ([4]; H2O with 0.1% DMSO, degassed)	log Po/w [5]	further results
5,10,15,20-tetraphenylporphyrin-Yb(III)-[(cyclopentadienyl)tris(di(ethyl)phosphito)cobaltate] [YbTPP(LOEt)]											NIR luminescence quantum yield of reference [1]: 0.024
C1=Cc2nc1c(-c1ccccc1)c1nc(c(-c3ccccc3)c3ccc([nH]3)c(-c3ccccc3)c3ccc([nH]3)c2-c2ccccc2)C=C1 [TPP, tetraphenylporphyrin]											singlet oxygen quantum yield of reference (ΦΔ) [2]: 0.55
OC[C@H]1O[C@@H](Oc2ccc(C3=C4N=C(C(F)=C4F)C(c4ccc(O[C@@H]5O[C@H](CO)[C@@H](O)[C@H](O)[C@H]5O)cc4)=c4c(F)c(F)c5[n]4[Yb+][n]4c3c(F)c(F)c4C(c3ccc(O[C@@H]4O[C@H](CO)[C@@H](O)[C@H](O)[C@H]4O)cc3)=C3N=C(C(F)=C3F)C=5c3ccc(O[C@@H]4O[C@H](CO)[C@@H](O)[C@H](O)[C@H]4O)cc3)cc2)[C@H](O)[C@@H](O)[C@@H]1O.[2H]C([2H])([2H])O[P](=O)(OC([2H])([2H])[2H])[Co-]([CH]1C=CC=C1)([P](=O)(OC([2H])([2H])[2H])OC([2H])([2H])[2H])[P](=O)(OC([2H])([2H])[2H])OC([2H])([2H])[2H] [Yb-1]	161(5) μs	165(4) μs	95(2) μs	96(3) μs	100(3)	16(2) %	16(2) %	7.6(0.4) %	7.7(0.5) %	1.32	
O=C(O)c1ccc(C2=C3C=CC(=N3)C(c3c(F)c(F)c(F)c(F)c3F)=c3ccc4[n]3[Yb+][n]3c2ccc3C(c2c(F)c(F)c(F)c(F)c2F)=C2C=CC(=N2)C=4c2c(F)c(F)c(F)c(F)c2F)cc1.[2H]C([2H])([2H])O[P](=O)(OC([2H])([2H])[2H])[Co-]([CH]1C=CC=C1)([P](=O)(OC([2H])([2H])[2H])OC([2H])([2H])[2H])[P](=O)(OC([2H])([2H])[2H])OC([2H])([2H])[2H] [Yb-2c]	52(2) μs	52(2) μs	38(1) μs	41(2) μs		6.2(0.2) %	6.0(0.2) %	2.5(0.2) %	2.6(0.2) %	1.26	
FC1=C(F)C2=C(c3ccc(C[P+](c4ccccc4)(c4ccccc4)c4ccccc4)cc3)c3c(F)c(F)c4[n]3[Yb+][n]3c(c(F)c(F)c3=C(c3ccc(C[P+](c5ccccc5)(c5ccccc5)c5ccccc5)cc3)C3=NC(=C4c4ccc(C[P+](c5ccccc5)(c5ccccc5)c5ccccc5)cc4)C(F)=C3F)=C(c3ccc(C[P+](c4ccccc4)(c4ccccc4)c4ccccc4)cc3)C1=N2.[2H]C([2H])([2H])O[P](=O)(OC([2H])([2H])[2H])[Co-]([CH]1C=CC=C1)([P](=O)(OC([2H])([2H])[2H])OC([2H])([2H])[2H])[P](=O)(OC([2H])([2H])[2H])OC([2H])([2H])[2H].[Cl-].[Cl-].[Cl-].[Cl-] [Yb-3]	205(2) μs	213(5) μs	56(2) μs	58(3) μs	90(2)	20(1) %	21(2) %	5.1(0.2) %	5.2(0.3) %	0.56	
C1=CC2=C(c3ccc(C[P+](c4ccccc4)(c4ccccc4)c4ccccc4)cc3)c3ccc4[n]3[Yb+][n]3c(ccc3=C(c3ccc(C[P+](c5ccccc5)(c5ccccc5)c5ccccc5)cc3)C3=NC(=C4c4ccc(C[P+](c5ccccc5)(c5ccccc5)c5ccccc5)cc4)C=C3)=C(c3ccc(C[P+](c4ccccc4)(c4ccccc4)c4ccccc4)cc3)C1=N2.[2H]C([2H])([2H])O[P](=O)(OC([2H])([2H])[2H])[Co-]([CH]1C=CC=C1)([P](=O)(OC([2H])([2H])[2H])OC([2H])([2H])[2H])[P](=O)(OC([2H])([2H])[2H])OC([2H])([2H])[2H].[Cl-].[Cl-].[Cl-].[Cl-] [Yb-3c]	49(1) μs	51(2) μs	25(1) μs	26(2) μs		5.6(0.2) %	5.6(0.2) %	1.4(0.1) %	1.4(0.1) %	0.24	
C[N+]1(C)CC2(F)C3=NC(=C(c4c(F)c(F)c(F)c(F)c4F)c4c(F)c(F)c5[n]4[Yb+][n]4c(c(F)c(F)c4=C3c3c(F)c(F)c(F)c(F)c3F)=C(c3c(F)c(F)c(F)c(F)c3F)C3=NC(=C5c4c(F)c(F)c(F)c(F)c4F)C(F)=C3F)C2(F)C1.[2H]C([2H])([2H])O[P](=O)(OC([2H])([2H])[2H])[Co-]([CH]1C=CC=C1)([P](=O)(OC([2H])([2H])[2H])OC([2H])([2H])[2H])[P](=O)(OC([2H])([2H])[2H])OC([2H])([2H])[2H].[I-] (centres unmarked) [Yb-4]	173(4) μs	187(8) μs	140 μs and 140(5) μs	142(5) μs	145(3)	17(2) %	18(2) %	10% and 10(1) %	10(1) %	1.34	photostability ([6]; pH = 5 PBS with 0.1% DMSO, 405 nm laser 0.2 W cm^–2): photostable over 4 h; NIR luminescence under continuous irradiation ([6]; water, PBS and FBS with 0.1% DMSO, 405 nm laser, 0.2 W cm^–2): did not significantly change; dark stability ([6]; water, PBS and FBS with 0.1% DMSO, NIR luminescence): high dark stability over 48 h; τobs ([3]; ethanol, air-equil., λex = 410 nm, 980 nm): 86(4) μs; τobs ([3]; ethanol, degassed, λex = 410 nm, 980 nm): 99(2) μs; τobs ([3]; glycerol, air-equil., λex = 410 nm, 980 nm): 192(4) μs; τobs ([3]; glycerol, degassed, λex = 410 nm, 980 nm): 195(5) μs; τobs ([3]; i-propanol, air-equil., λex = 410 nm, 980 nm): 110(5) μs; τobs ([3]; i-propanol, degassed, λex = 410 nm, 980 nm): 120(3) μs; τobs ([3]; methanol, air-equil., λex = 410 nm, 980 nm): 68(2) μs; τobs ([3]; methanol, degassed, λex = 410 nm, 980 nm): 74(3) μs; τobs ([3]; t-butanol, air-equil., λex = 410 nm, 980 nm): 117(4) μs; τobs ([3]; t-butanol, degassed, λex = 410 nm, 980 nm): 127(3) μs; ΦYb and τobs in H2O relative to Yb-4c ([4]; H2O, air-saturated): 4 fold
C[N+]1(C)CC2C3=NC(=C(c4c(F)c(F)c(F)c(F)c4F)c4ccc5[n]4[Yb+][n]4c(ccc4=C3c3c(F)c(F)c(F)c(F)c3F)=C(c3c(F)c(F)c(F)c(F)c3F)C3=NC(=C5c4c(F)c(F)c(F)c(F)c4F)C=C3)C2C1.[2H]C([2H])([2H])O[P](=O)(OC([2H])([2H])[2H])[Co-]([CH]1C=CC=C1)([P](=O)(OC([2H])([2H])[2H])OC([2H])([2H])[2H])[P](=O)(OC([2H])([2H])[2H])OC([2H])([2H])[2H].[I-] (centres unmarked) [Yb-4c]	49(2) μs	50(2) μs	35 μs and 35(1) μs	38(2) μs		5.4(0.2) %	5.5(0.2) %	2.3% and 2.3(0.2) %	2.4(0.1) %	1.33	photobleaching ([6]; pH = 5 PBS with 0.1% DMSO, 405 nm laser 0.2 W cm^–2, 4 h): 55%
